Legend:
[1] = molecular target: GDP-bound HRAS wild-type protein (Homo sapiens, UniProt P01112); assay: Binding to HRAS by surface plasmon resonance (SPR), Single Cycle Kinetics; settings: SPR; KD ratio class
[2] = molecular target: GDP-bound NRAS wild-type protein (Homo sapiens, UniProt P01111); assay: Binding to NRAS by surface plasmon resonance (SPR), Single Cycle Kinetics; settings: SPR; KD ratio class
[3] = test system: human lung cancer strain NCI-H441; assay: cells; settings: NCI-H441, 96 h, read-out: NCI-H441 IC50 (nM)

Sequence of GDP-bound HRAS wild-type protein (P01112 whole entry): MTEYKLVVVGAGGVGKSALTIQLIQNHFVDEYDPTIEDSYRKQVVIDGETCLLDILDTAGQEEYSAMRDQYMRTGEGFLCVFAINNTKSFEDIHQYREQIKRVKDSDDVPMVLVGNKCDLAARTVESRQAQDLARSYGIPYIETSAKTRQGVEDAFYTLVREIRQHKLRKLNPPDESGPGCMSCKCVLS
Sequence of GDP-bound NRAS wild-type protein (P01111 whole entry): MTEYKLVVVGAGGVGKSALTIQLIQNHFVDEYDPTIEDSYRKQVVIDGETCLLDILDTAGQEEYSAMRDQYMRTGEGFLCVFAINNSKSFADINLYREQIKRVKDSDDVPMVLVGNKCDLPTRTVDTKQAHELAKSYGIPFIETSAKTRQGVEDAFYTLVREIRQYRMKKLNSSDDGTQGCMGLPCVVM

SMILES | HRAS/KRAS (ratio of KD value for GDP-bound HRAS wild-type protein to KD value for KRAS) [1] | NRAS/KRAS (ratio of KD value for GDP-bound NRAS wild-type protein to KD value for KRAS) [2] | IC50 [3] [nM]
CCO[C@@H]1C[C@H]2C(=O)NC3(CC(C)(C)C3)C(=O)N(C)[C@@H](C3CCCC3)C(=O)N(C)[C@H](C(=O)N(C)C)CC(=O)N(C)[C@@H](CC(C)C)C(=O)N[C@@H]([C@@H](C)CC)C(=O)N(C)CC(=O)N(C)[C@H]3C/C=C\CCN(C3=O)[C@@H](Cc3ccc(C(F)(F)F)cc3)C(=O)N(C)CC(=O)N[C@@H](CCc3ccc(C(F)(F)F)c(OC)c3)C(=O)N2C1 [PP1562] | A (a compound having 10 or more and less than 20 is denoted as A) | A (a compound having 10 or more and less than 20 is denoted as A) | 1.7
CCO[C@@H]1C[C@H]2C(=O)NC3(CC(C)(C)C3)C(=O)N(C)[C@@H](C3CCCC3)C(=O)N(C)[C@H](C(=O)N(C)C)CC(=O)N(C)[C@@H](CC3CC3)C(=O)N[C@@H]([C@@H](C)CC)C(=O)N(C)CC(=O)N(C)[C@H]3C/C=C\CCN(C3=O)[C@@H](Cc3ccc(C(F)(F)F)cc3)C(=O)N(C)CC(=O)N[C@@H](CCc3ccc(C(F)(F)F)c(OC)c3)C(=O)N2C1 [PP1563] | A (a compound having 10 or more and less than 20 is denoted as A) | A (a compound having 10 or more and less than 20 is denoted as A) | 2.6
CCO[C@@H]1C[C@H]2C(=O)NC3(CC(C)(C)C3)C(=O)N(C)[C@@H](C3CCCC3)C(=O)N(C)[C@H](C(=O)N(C)C)CC(=O)N(C)[C@@H](CC3CCC3)C(=O)N[C@@H]([C@@H](C)CC)C(=O)N(C)CC(=O)N(C)[C@H]3C/C=C\CCN(C3=O)[C@@H](Cc3ccc(C(F)(F)F)cc3)C(=O)N(C)CC(=O)N[C@@H](CCc3ccc(C(F)(F)F)c(OC)c3)C(=O)N2C1 [PP1564] | A (a compound having 10 or more and less than 20 is denoted as A) | A (a compound having 10 or more and less than 20 is denoted as A) | 3
CCO[C@@H]1C[C@H]2C(=O)NC3(CC(C)(C)C3)C(=O)N(C)[C@@H](C3CCCC3)C(=O)N(C)[C@H](C(=O)N(C)C)CC(=O)N(C)[C@@H](CC3CCCC3)C(=O)N[C@@H]([C@@H](C)CC)C(=O)N(C)CC(=O)N(C)[C@H]3C/C=C\CCN(C3=O)[C@@H](Cc3ccc(C(F)(F)F)cc3)C(=O)N(C)CC(=O)N[C@@H](CCc3ccc(C(F)(F)F)c(OC)c3)C(=O)N2C1 [PP1565] | B (a compound having 3 or more and less than 10 is denoted as B) | A (a compound having 10 or more and less than 20 is denoted as A) | 6.5
CC[C@H](C)[C@@H]1NC(=O)[C@H](CC(C)C)N(C)C(=O)C[C@@H](C(=O)N(C)C)N(C)C(=O)[C@H](C2CCCC2)N(C)C(=O)C2(CC(C)(C)C2)NC(=O)[C@@H]2C[C@@H](F)CN2C(=O)[C@H](CCc2cc(F)c(C(F)(F)F)c(F)c2)NC(=O)CN(C)C(=O)[C@H](Cc2ccc(C(F)(F)F)cc2)N2CC/C=C\C[C@@H](C2=O)N(C)C(=O)CN(C)C1=O [PP1566] | A (a compound having 10 or more and less than 20 is denoted as A) | A (a compound having 10 or more and less than 20 is denoted as A) | 2.3
